From patent US7514429B2, “Benzoxazinone-derived compounds, their preparation and use as medicaments” (ESTEVE Laboratorios Dr. Esteve S.A., priority 2002, dated 2009)
pIC50, pKi: −log10 of the molar value. Where a name gives a salt, the structure may show the parent alone.

Columns and labels:
[1] = test system: rats; assay: Nocturnal feeding (food intake measurement); assay type: in vivo, rat; conditions: vs. control group
Protocol: Behavioural Models (Food Intake Measurements)
In both test, animals rats (Male W, 200-270 g, obtained from Harlan, S. A) were used. The rats are acclimatized to the animal facility for at least 5 days before being subjected to any experimental procedure. During this period, animals were housed in groups of five in translucid cages and provided with food and water ad libitum. At least 24 hours before the tests, animals are adapted to single-housing conditions.
Food intake is measured in home cages in order to minimize non-specific stress effects on food intake resulting from changes in housing conditions. Food and water is available ad libitum. Immediately before lights turn off, rats are weighed, randomized and dosed (orally or intraperitoneally), either with vehicle or selected benzoxacine-compounds of general formula (I). Thereafter, rats are returned to home cages and food left on top covers is measured. Remaining food and animal's weight is measured next morning.
The above mentioned methods are described in Ants Kask et al., Europan Journal of Pharmacology 414 (2001) 215-224 and Turnbull et al., Diabetes, Vol. 51, August 2002, which are hereby incorporated by reference and form part of the disclosure.

[2] = target: T1, Neuropeptide Y2 (Rattus norvegicus, UniProt Q9ERC0); assay: Binding to Neuropeptide Y2, Method (III), rat hypoccampus membranes; conditions: [125I]-PYY(3-36)
T1 construct: their brains are rapidly removed and the hypoccampus is dissected; from tissue; host or cells: rat hippocampus membranes (male Wistar rats)
T1 sequence (Q9ERC0 1-381): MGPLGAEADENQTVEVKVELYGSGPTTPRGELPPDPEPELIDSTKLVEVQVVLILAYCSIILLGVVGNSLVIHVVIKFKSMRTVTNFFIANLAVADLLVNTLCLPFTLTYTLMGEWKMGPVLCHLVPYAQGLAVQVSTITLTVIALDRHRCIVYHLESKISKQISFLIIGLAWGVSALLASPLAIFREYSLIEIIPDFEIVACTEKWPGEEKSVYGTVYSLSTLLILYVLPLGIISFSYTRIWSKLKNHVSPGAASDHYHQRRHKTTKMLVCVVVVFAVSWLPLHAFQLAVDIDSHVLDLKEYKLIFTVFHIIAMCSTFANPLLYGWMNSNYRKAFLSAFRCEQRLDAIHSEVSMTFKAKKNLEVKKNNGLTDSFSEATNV
Protocol: Binding to Neuropeptide Y2
Said literature description is herewith incorporated by reference and forms part of the disclosure.
Male Wistar rats are sacrificed by decapitation, their brains are rapidly removed and the hypoccampus is dissected. Homogenization is performed in cold conditions in the buffer: 120 mM NaCl, 4.7 mM KCl, 2.2 mM CaCl2, 1.2 mM KH2PO4, 1.2 mM MgSO4, 25 mM NaHCO3, 5.5 mM glucose, pH 7.4, by means of a Ultra-Turrax homogenizer for 15 seconds at 13,500 rpm. The ratio between fresh tissue weight and buffer volume is of ten times. The membrane is centrifuged for 10 min at 48,000 g. The supernatant is discarded and the pellet is washed, resuspended and recentrifuged two more times. The final membrane resuspension is performed in the buffer: 120 mM NaCl, 4.7 mM KCl, 2.2 mM CaCl2, 1.2 mM KH2PO4, 1.2 mM MgSO4, 25 mM NaHCO3, 5.5 mM glucose, 0.1% BSA, 0.05% bacitracin, pH 7.4, at a 90 ml/g ratio of fresh issue. […] Incubation volume: 500 μl. […] The filters are cold-washed three times with three milliliters of the same buffer used in homogenization. […] Non-specific binding is determined in the presence of 1 μM of pNPY (Neuropeptide Y of porcine origin). The assays are performed in triplicate.

[3] = target: T2, rat Y5 receptor (Rattus norvegicus, UniProt Q63634); assay: Neuropeptide Y5 receptor binding, Method (II), C6 cells transfected with the rat Y5 receptor; conditions: [125I]-PYY, Y5 rat recombinant receptor, cell C6
T2 construct: expressed in transfected cells; host or cells: C6 cells
T2 sequence (Q63634 1-445): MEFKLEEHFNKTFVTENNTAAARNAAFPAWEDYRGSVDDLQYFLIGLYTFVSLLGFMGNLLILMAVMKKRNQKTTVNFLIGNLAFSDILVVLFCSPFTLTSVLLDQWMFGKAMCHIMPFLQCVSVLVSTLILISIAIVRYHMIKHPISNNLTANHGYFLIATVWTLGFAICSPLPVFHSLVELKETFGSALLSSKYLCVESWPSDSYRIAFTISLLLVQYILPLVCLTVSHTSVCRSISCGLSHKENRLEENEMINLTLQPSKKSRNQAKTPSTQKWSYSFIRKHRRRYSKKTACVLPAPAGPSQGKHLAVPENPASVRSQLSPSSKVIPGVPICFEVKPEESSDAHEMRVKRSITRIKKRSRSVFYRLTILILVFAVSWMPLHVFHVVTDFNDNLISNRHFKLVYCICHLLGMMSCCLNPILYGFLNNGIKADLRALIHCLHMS
Protocol: Neuropeptide Y5 Receptor Binding Studies:
The methods used for membrane preparation and binding are similar to those described by Y. Hu, B. T. Bloomquist et al. in Y. Hu, B. T. Bloomquist et al., The Journal of Biological Chemistry, 1996, 271, 26315-26319 with modifications. Said literature description is herewith incorporated by reference and forms part of the disclosure. Cells C6 were transfected with the rat Y5 receptor. The cells were grown under standard culture conditions in 150 cm^2 dishes and they were harvested using a rubber scraper and 10 ml PBS. The cells from five dishes were collected and centrifuged 2.500 g for 5 min (4° C). The pellet was washed by resuspending in 3 ml buffer (Tris-HCl 10 mM, pH 7.4), homogenized using a Potter S homogenizer, 10 strokes at 600 rpm and centrifuged 48.000 g for 20 min (4° C.). The pellet was resuspended in 8 ml membrane buffer (Tris-HCl 25 mM, NaCl 120 mM, KCl 5 mM, KH2PO4 1.2 mM, CaCl2 2.5 mM, MgSO4 1.2 mM, BSA 0.15 mg/ml, Bacitracine 0.5 mg/ml, pH 7.4) and rehomogenized using the Potter S, 10 strokes at 600 rpm. The protein concentration in the incubation was 40 μg/ml. The radioligand was [^125I]-PYY (100 pM) in a total incubation volume of 200 μl. Following incubation at 25° C. for 2 h, the reaction was stopped by addition of 5 ml ice-cold buffer (Tris-HCl 25 mM, NaCl 120 mM, KCl 5 mM, KH2PO4 1.2 mM, CaCl2 2.5 mM, MgSO4 1.2 mM, pH 7.4) and rapid filtration in a Harvester Brandell Cell using filters (Schleicher & Schuell G F 3362) pretreated for two hours with 0.5% polyethyleneimine. Filters were washed one time with 5 ml ice-cold buffer. The filters were placed into plastic scintilation vials and 5 ml scintilation cocktail Ecoscint H were added. The quantity of radioactivity present was determined in a Wallac Winspectral 1414 counter. Non specific binding was determined in the presence of 1 μM de pNPY. All binding assays were done in triplicate.

In the case of `Cc1ccc2c(c1)COC(=O)N2C1CCN(CC(=O)Nc2ccc3c(c2)-c2ccccc2C3=O)CC1` [Example 20, 2-[4-(6-methyl-2-oxo-4H-benzo[d][1,3]oxazin-1-yl)-piperidin-1-yl]-N-(9-oxo-9H-fluoren-3-yl)-acetamide hydrochloride], the “Effect: body weight of treated animals” value ([1]; 40 mg/kg i.p. administration) was “reduces body weight of”, the “Effect: food intake” value ([1]; 40 mg/kg i.p. administration) was “Decreases food intake and” and the pKi [2] was under 6.00.
In the case of `COc1cccc2c1COC(=O)N2C1CCN(CC(=O)Nc2ccc3sc4ccccc4c3c2)CC1` [Example 107, N-Dibenzothiophene-2-yl-2-[4-(5-methoxy-2-oxo-4H-benzo[d][1,3]oxazin-1-yl)-piperidin-1-yl]-acetamide], the pIC50 [3] was 7.63.
`COc1ccc2c(c1)COC(=O)N2C1CCN(CC(=O)Nc2ccc3sc(C)nc3c2)CC1` [Example 116, 2-[4-(6-Methoxy-2-oxo-4H-benzo[d][1,3]oxazin-1-yl)-piperidin-1-yl]-N-(2-methyl-benzothiazole-5-yl)-acetamide] showed a pIC50 [3] of 6.97.
In the case of `Cc1cccc2c1N(C1CCN(CC(=O)Nc3ccc4c(c3)-c3ccccc3C4=O)CC1)C(=O)OC2` [Example 35, 2-[4-(8-Methyl-2-oxo-4H-benzo[d][1,3]oxazin-1-yl)-piperidin-1-yl]-N-(9-oxo-9H-fluoren-3-yl)-acetamide hydrochloride], the “Effect: body weight of treated animals” value ([1]; 20 mg/kg i.p. administration) was “reduces body weight of” and the “Effect: food intake” value ([1]; 20 mg/kg i.p. administration) was “Decreases food intake and”.
For `O=C(CN1CCC(N2C(=O)OCc3ccccc32)CC1)Nc1ccc2c(c1)-c1ccccc1C2=O` [Example 3, 2-[4-(2-oxo-4H-benzo[d][1,3]oxazin-1-yl)-piperidin-1-yl]-N-(9-oxo-9H-fluoren-3-yl)-acetamide hydrochloride], the pKi [2] was under 6.00.
`Cc1cccc2c1N(C1CCN(CC(=O)Nc3ccc4c(c3)-c3ccccc3C4=O)CC1)C(=O)OC2` (as salt: HCl) [Example 35, 2-[4-(8-Methyl-2-oxo-4H-benzo[d][1,3]oxazin-1-yl)-piperidin-1-yl]-N-(9-oxo-9H-fluoren-3-yl)-acetamide hydrochloride] gave a melting point of 233 to 236 °C.
With `CCn1c2ccccc2c2cc(NC(=O)CN3CCC(N4C(=O)OCc5ccccc54)CC3)ccc21` [Example 18, N-(9-Ethyl-9H-carbazol-3-yl)-2-[4-(2-oxo-4H-benzo[d][1,3]oxazin-1-yl)-piperidin-1-yl]-acetamide hydrochloride] the “Effect: body weight of treated animals” value ([1]; 40 mg/kg i.p. administration) was “reduces body weight of” and the “Effect: food intake” value ([1]; 40 mg/kg i.p. administration) was “Decreases food intake and”.
In the case of `Cc1nc2cc(NC(=O)CN3CCC(N4C(=O)OCc5cc(F)ccc54)CC3)ccc2s1` [Example 114, 2-[4-(6-Fluoro-2-oxo-4H-benzo[d][1,3]oxazin-1-yl)-piperidin-1-yl]-N-(2-methyl-benzothiazole-5-yl)-acetamide], the pIC50 [3] was 7.39.
